In BindingDB's records for doi:10.1016/0960-894X(96)00356-3 (1996):

Molecular target: Tissue alpha-L-fucosidase (Bos taurus)
Experiment: Compound was tested for the inhibitory activity against alpha-L-fucosidase from bovine epididymis

Question: With CC1SC(Oc2ccc([N+](=O)[O-])cc2)C(O)C(O)C1O [(3R,4S,5S)-2-Methyl-6-(4-nitro-phenoxy)-tetrahydro-thiopyran-3,4,5-triol] as the compound, how does the Ki read?
Answer: 118 µM

Question: With CSC1SC(C)C(O)C(O)C1O [(3R,4S,5S)-2-Methyl-6-methylsulfanyl-tetrahydro-thiopyran-3,4,5-triol] as the compound, how does the Ki read?
Answer: 2300 µM

Question: Which Ki does the source give for COC1SC(C)C(O)C(O)C1O [(3S,4S,5R)-2-Methoxy-6-methyl-tetrahydro-thiopyran-3,4,5-triol] here?
Answer: 690 µM

Question: Which Ki does the source give for CC1SC(Sc2ccc([N+](=O)[O-])cc2)C(O)[C@H](O)C1O (stereo partly drawn) [(R)-2-Methyl-6-(4-nitro-phenylsulfanyl)-tetrahydro-thiopyran-3,4,5-triol] here?
Answer: 3.3 µM

Question: With CC1SC(OP(=O)(O)O)C(O)C(O)C1O [Sodium; Phosphoric acid mono-((3S,4S,5R)-3,4,5-trihydroxy-6-methyl-tetrahydro-thiopyran-2-yl) ester] as the compound, how does the Ki read?
Answer: 406 µM

Question: With CC1SC(OP(=O)(O)OCc2ccccc2)C(O)C(O)C1O (stereo unspecified) [Sodium; benzyl 3,4,5-trihydroxy-6-methyltetrahydro-2H-thiopyran-2-yl hydrogen phosphate] as the compound, how does the Ki read?
Answer: 33 µM
